{
  "source": "PubChem BioAssay (NCI)",
  "assay_in_all_cases": "NCI tumour cell line growth inhibition, 384-well format",
  "key": {"[1]": {"system": "SK-MEL-2 melanoma"}, "[2]": {"system": "OVCAR-3 ovarian"}, "[3]": {"system": "MALME-3M melanoma"}, "[4]": {"system": "SN12C renal"}, "[5]": {"system": "MCF7 breast"}, "[6]": {"system": "HCT-116 colon"}, "[7]": {"system": "OVCAR-8 ovarian"}, "[8]": {"system": "CAKI-1 renal"}, "[9]": {"system": "SF-539 CNS"}, "[10]": {"system": "BT-549 breast"}, "[11]": {"system": "HT29 colon"}, "[12]": {"system": "NCI-H460 NSCLC"}, "[13]": {"system": "MDA-MB-435 melanoma"}},
  "note": "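Here, GI50 denotes the concentration required for 50% inhibition of growth. TGI is the concentration that stops growth completely.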",
  "data": [
    {"smiles": "CC(C)(C)C[C@H]1N[C@@H](C(=O)NC2CCC(O)CC2)[C@H](c2cccc(Cl)c2F)[C@@]12C(=O)Nc1cc(Cl)ccc12", "note": "(stereo partly specified)", "values": [
      {"measurement": "GI50", "setting": "[1]", "result": 4.41, "unit": "µM"},
      {"measurement": "TGI", "setting": "[1]", "result": 14.6, "unit": "µM"},
      {"measurement": "GI50", "setting": "[2]", "result": 6.74, "unit": "µM"},
      {"measurement": "TGI", "setting": "[2]", "result": 19.2, "unit": "µM"},
      {"measurement": "GI50", "setting": "[3]", "result": 0.229, "unit": "µM"},
      {"measurement": "TGI", "setting": "[3]", "result": 5.03, "unit": "µM"},
      {"measurement": "GI50", "setting": "[4]", "result": 14, "unit": "µM"},
      {"measurement": "TGI", "setting": "[4]", "result": 27.2, "unit": "µM"},
      {"measurement": "GI50", "setting": "[5]", "result": 0.318, "unit": "µM"},
      {"measurement": "TGI", "setting": "[5]", "result": 7.21, "unit": "µM"},
      {"measurement": "GI50", "setting": "[6]", "result": 0.304, "unit": "µM"},
      {"measurement": "TGI", "setting": "[6]", "result": 11.7, "unit": "µM"},
      {"measurement": "GI50", "setting": "[7]", "result": 12.5, "unit": "µM"},
      {"measurement": "TGI", "setting": "[7]", "result": 25.1, "unit": "µM"},
      {"measurement": "GI50", "setting": "[8]", "result": 0.195, "unit": "µM"},
      {"measurement": "TGI", "setting": "[8]", "result": 10.8, "unit": "µM"},
      {"measurement": "GI50", "setting": "[9]", "result": 8.76, "unit": "µM"},
      {"measurement": "TGI", "setting": "[9]", "result": 22.3, "unit": "µM"},
      {"measurement": "GI50", "setting": "[10]", "result": 10.1, "unit": "µM"},
      {"measurement": "TGI", "setting": "[10]", "result": 23.2, "unit": "µM"},
      {"measurement": "GI50", "setting": "[11]", "result": 3.65, "unit": "µM"},
      {"measurement": "TGI", "setting": "[11]", "result": 13.4, "unit": "µM"},
      {"measurement": "GI50", "setting": "[12]", "result": 1.71, "unit": "µM"},
      {"measurement": "TGI", "setting": "[12]", "result": 14.9, "unit": "µM"},
      {"measurement": "GI50", "setting": "[13]", "result": 10.2, "unit": "µM"},
      {"measurement": "TGI", "setting": "[13]", "result": 23, "unit": "µM"}
    ]}
  ]
}
